Data taken from patent US20090156504A1, “METHODS OF TREATING BLOOD CELL DEPLETION” (ImmuneRegen Biosciences, Inc., priority 2007, published 2009).

Key:
[1] = test system: Colony Forming Unit-Megakaryocyte (CFU-Mk) cultures; test: Colony forming unit assay, CFU-Mk (Example 6); format: cell-based, human; settings: for effect of receptor antagonist on substance P-enhanced platelet colony formation: in the presence of substance P
Text: (§1) As stem cells differentiate in response to growth factors, they form a colony of cells with distinct morphologies that can be visualized using a microscope. This study examined the formation of three different progenitor cell populations, erythrocytes, platelets and granulocytes/macrophages.
(§2) Bone marrow aspirates were obtained from three healthy donors between 18 and 35 years of age following appropriate guidelines and protocols. Bone marrow mononuclear cells were isolated using a Ficoll-Hypaque density gradient, separating red blood cells from the others. Cells from each donor were processed independently and used for setting up individual experiments to assess the effects, if any, of donor variability.
(§3) Cells (1×10^5) were plated in duplicate onto 35 mm tissue culture plates for each condition tested and set up as described in Rameshwar et al. 1993, Blood. 81:2, 391-398. Erythroid and granulocyte/macrophage cultures were plated using methylcellulose and megakaryocyte cultures (platelet precursors) used a collagen-based support (StemCell Technologies, Vancouver, Canada, catalogue #04973). […] CP 99,994 (Pfizer) was used as a neurokinin-1 receptor antagonist and SR 48968 (Sanofi) was used as a neurokinin-2 receptor antagonist.
Cultures were set up with limited cytokines and growth factors which would promote differentiation of one progenitor per plate.
Each compound was dissolved in endotoxin-free water to a final concentration of 0.1 mM. After reconstitution, the solutions were aliquoted into siliconized microcentrifuge tubes and exposed to nitrogen gas, eliminating oxygen in the head space of the enclosure. All aliquots were stored at −20° C. until use and used within one month of reconstitution. See, Rameshwar, et al. 1997, J. Immunol.
Cultures were incubated at 37° C. with 5% CO2 for approximately 14 days, after which colonies were manually enumerated using a microscope. […]

[2] = test system: human bone marrow-derived hematopoietic cell populations; test: CFC differentiation and ATP proliferation assays, overall statements on the seven cell populations (Examples 4 and 5); format: cell-based
Description: The compound was dissolved in 1 ml of Iscove's Modified Dulbecco's Medium (IMDM) and a serial dose response prepared in single log doses so that the final dose in culture ranged from 1 nM to 1×10^−16 M. All working dilutions were performed in IMDM.
Starting with human bone marrow aspirate, the mononuclear cell (MNC) fraction was separated from the whole bone marrow using Ficoll-Paque density gradient centrifugation. […] The cell concentration was adjusted so that the final cell concentration in culture was 10,000 cells/well.
Human bone marrow MNC was dissolved in IMDM and cultured at a concentration of 10,000 cell/well in a CAMEO™-96 Master Mix (HemoGenix, Inc., Colorado Springs, Colo.). Master Mix is a HemoGenix proprietary cell culture media comprised of a serum mix (4 parts), a methyl cellulose mix (4 parts) and a growth factor mix (1 part) with the bone marrow target cells (1 part). See, Rich and Hall 2005, Toxicol. Sci. 87(2): 427-441.
Different combinations and concentrations of growth factors are used to induce differentiation of cells into specific cell types. […]
Prior to processing all 96-well plates, the total colony counts/well were manually enumerated by microscopy. The mean, standard deviation and percent coefficient of variation was calculated for all groups, transposed and plotted. The intracellular ATP (iATP) concentration was measured after manual enumeration. The output of the luminometer is non-standardized Relative Luminescence Units (RLU). […] This allowed the RLU values to be automatically calculated into standardized ATP (μM) units. For both the RLU and ATP values derived from each well, the luminometer software calculated the mean, standard deviation and percent coefficient of variation. […]

[3] = test system: Blast Forming Unit—Erythroid (BFU-E) cultures; test: Colony forming unit assay, BFU-E (Example 6); format: cell-based; settings: human bone marrow cells, about 14 days, FIG. 1; control = zero level
Text: as §1, §2
as §3, with “antagonist. […]” for “antagonist.”

[4] = test system: Colony Forming Unit—Erythroid (CFU-E) cultures; test: Colony forming unit assay, CFU-E (Example 6); format: cell-based; settings: human bone marrow cells, about 14 days, FIG. 2
Text: as §1, §2
as §3, with “antagonist. […]” for “antagonist.”

## CC(=O)NC1(c2ccccc2)CCN(CC[C@H](CN(C)C(=O)c2ccccc2)c2ccc(Cl)c(Cl)c2)CC1 [SR48968]
[1]
  effect of receptor antagonist on substance P-enhanced platelet colony formation: showed no effect on substance P activity

## CC(C)C[C@H](NC(=O)CN(C)C(=O)[C@H](Cc1ccccc1)NC(=O)[C@H](Cc1ccccc1)NC(=O)[C@H](CCC(N)=O)NC(=O)[C@H](CCC(N)=O)NC(=O)[C@@H]1CCCN1C(=O)[C@H](CCCCN)NC(=O)[C@@H]1CCCN1C(=O)[C@@H](N)CCCNC(=N)N)C(=O)N[C@@H](CCS(C)(=O)=O)C(N)=O [Homspera®]
[2]; Example 4, levels tested (10^−16 M to 1 nM)
  toxicity to T-CFC and B-CFC: do not demonstrate toxicity at the levels tested
[2]; Example 4, most of populations, 14 days, 10^−16 M to 1 nM
  cytotoxicity: apparent absence of distinct cytotoxicity
[2]; Example 5, three donors, seven cell populations, highest doses (1 nM)
  toxicity in CFC assay: no apparent toxicity at the highest doses

## COc1ccccc1CN[C@H]1CCCN[C@H]1c1ccccc1 [CP-99,994]
[1]
  effect of receptor antagonist on substance P-enhanced platelet colony formation: blocks the stimulatory activity of substance P

## RPKPQQFFGLM-NH2 [substance P]
[3]
  BFU-E colony increase from control values: ~60%
[4]
  CFU-E colony formation enhancement from control values: about 70%
[1]; approximately 2-fold stimulation
  effective concentration for platelet precursors: 10^−8 M
